In patent publication EP3351262A1, “CURAGLUTIDE FOR IN TREATMENT OF PREDIABETES, DIABETES, OBESITY AND METABOLIC DISEASES ASSOCIATED THERETO” (Istanbul Universitesi Rektorlugu, priority 2016, dated 2018):

Tested on: INS-1 cells
Test: Lactate dehydrogenase (LDH) release cytotoxicity test (necrosis)
Format: cell-based, rat
Conditions: for % cytotoxicity values: LDH secretion; for cytotoxicity value percentages: 24 h, positive control (lysis) 100%
Protocol: Lactate dehydrogenase (LDH) release test is based on the measurement of the activity of lactate dehydrogenase which is a cytoplasmic enzyme released from the dead cells or cells with damaged plasma membrane and it is used in cellular cytotoxicity assessment. The cytotoxic effect of palmitic acid on […] pancreatic INS-1 cell strain was determined by LDH activity released from the damaged cells and for this purpose Cytotoxicity Determination Kit, LDH (Roche Molecular Marker) was used.
In LDH test, as well as the experimental groups wherein palmitic acid was applied, negative control group for spontaneous LDH release from the cells and positive control group for LDH release were studied. Since palmitic acid in 0.5, 0.75 and 1 mM doses decreases the cell viability, these doses and the control group of the highest dose were studied. The cells were removed by trypsin-EDTA and centrifuged, after growth in 75 cm^2 flask. The cells were suspended in medium in a way such that there would be 50 000 cells in 100 µl, and 100 µl cell suspension was transferred into plates with 96 wells. 10 wells were studied for each of the control and experiment groups and the experiment was repeated for 3 times. After the incubation for 24 hours, the control groups were washed with PBS, and they were freshened with the medium without sodium pyruvate and beta-mercaptoethanol. The medium of the experiment groups was changed with the medium containing different concentrations of palmitic acid. Following the incubation of the cells with palmitic acid for 24 hours, LDH activity released from the cells was determined according to the instructions of the manufacturer. 5 µl lysis solution (2% Triton-X-100) was added to the wells of positive control group and the plate was incubated at 37 °C for 15 minutes. In order to measure LDH activity, the fresh reaction mixture prepared containing catalyst (Diaphorase+NAD mixture) and paint solution (Iodotetrazolium chloride (INT) and sodium lactate) was added to each of the wells. Following the incubation at room temperature for 30 minutes, the reaction was stopped by adding 50 µl stopping solution (IN HCl) to each of the wells. The plates were shaken in an orbital shaker for 10 seconds and the spectrophotometric absorbance was measured in 490 nm test wavelength and 690 nm reference wavelength. The results were determined as "cytotoxicity %". The average absorbance values of negative control were extracted from control and experiment groups and they were calculated by using the formula below by comparing control and experiment groups according to positive control group, and by assuming that positive control group is 100% cytotoxic: 100% Cytotoxicity = ((Experiment or Control Value)−(Negative Control))/((Positive Control)−(Negative Control)) × 100 [formula]
Lactate dehydrogenase release in INS-1 cells wherein different palmitic acid doses were applied was measured using cytotoxicity kit and the results are shown in Figure 4.
Protective and therapeutic effect of 10 nM curaglutide on necrosis is shown in Figure 10 by the evaluation of LDH secretion at 3 and 4 mM doses in INS-1 beta cells. According to the results, in INS-1 beta cells % cytotoxicity values are 48.2±2 in the group where 3 mM dose (necrotic dose) of palmitic acid was administered, 11.6±2.9 in the group where 10 nM curaglutide was administered as a protective against necrotic dose, 11.6±4.8 in the group where 10 nM curaglutide was supplied as a curative agent in necrotic dose, 81.3±5.9 in the group where 4 mM dose of palmitic acid was administered, […] in the group where curaglutide was administered as a protective against 4 mM palmitic acid, 68.2±7.2 in the group where 10 nM curaglutide was administered as therapeutic at 4 mM dose of palmitic acid. As compared to the control group, statistically meaningful results were obtained in both doses in terms of protective effect (p<0,0001). […]

| Compound | % cytotoxicity values (10 nM curaglutide as curative agent, 3 mM palmitic acid (necrotic dose)) | % cytotoxicity values (10 nM curaglutide as protective against 3 mM palmitic acid (necrotic dose)) | % cytotoxicity values (10 nM curaglutide as therapeutic at 4 mM palmitic acid) | % cytotoxicity values (curaglutide as protective against 4 mM palmitic acid) | cytotoxicity value percentages (1 mM palmitic acid) | cytotoxicity value percentages (2 mM palmitic acid) | cytotoxicity value percentages (3 mM palmitic acid (necrotic dose)) | cytotoxicity value percentages (4 mM palmitic acid) |
| --- | --- | --- | --- | --- | --- | --- | --- | --- |
| CC[C@H](C)[C@H](NC(=O)[C@H](Cc1ccccc1)NC(=O)[C@H](CCC(=O)O)NC(=O)[C@H](CCCCN)NC(=O)[C@H](C)NC(=O)[C@H](C)NC(=O)[C@H](CCC(N)=O)NC(=O)CNC(=O)[C@H](CCC(=O)O)NC(=O)[C@H](CC(C)C)NC(=O)[C@H](Cc1ccc(O)cc1)NC(=O)[C@H](CO)NC(=O)[C@H](CO)NC(=O)[C@@H](NC(=O)[C@H](CC(=O)O)NC(=O)[C@H](CO)NC(=O)[C@@H](NC(=O)[C@H](Cc1ccccc1)NC(=O)[C@@H](NC(=O)CNC(=O)[C@H](CCC(=O)O)NC(=O)[C@H](C)NC(=O)[C@H](Cc1c[nH]cn1)NC(C)=O)[C@@H](C)O)[C@@H](C)O)C(C)C)C(=O)N[C@@H](C)C(=O)N[C@@H](Cc1c[nH]c2ccccc12)C(=O)N[C@@H](CC(C)C)C(=O)N[C@H](C(=O)N[C@@H](CCCCN)C(N)=O)C(C)C [curaglutide] | 11.6±4.8% | 11.6±2.9% | 68.2±7.2% | 45.8±6.8% | – | – | – | – |
| CCCCCCCCCCCCCCCC(=O)O [palmitic acid] | – | – | – | – | 1±0% | 13.5±2.4% | 48.2±2% | 81.3±5.9% |
